# Molecular target: phosphoinositide-specific phospholipase C (PI-PLC) (Bacillus cereus, UniProt P14262)
# Test: PI-PLC-induced liposome (LUV) aggregation assay, turbidity at […] nm, dose-response
# Assay type: biochemical
# phosphoinositide-specific phospholipase C (PI-PLC), sequence (P14262 32-329 limits assumed): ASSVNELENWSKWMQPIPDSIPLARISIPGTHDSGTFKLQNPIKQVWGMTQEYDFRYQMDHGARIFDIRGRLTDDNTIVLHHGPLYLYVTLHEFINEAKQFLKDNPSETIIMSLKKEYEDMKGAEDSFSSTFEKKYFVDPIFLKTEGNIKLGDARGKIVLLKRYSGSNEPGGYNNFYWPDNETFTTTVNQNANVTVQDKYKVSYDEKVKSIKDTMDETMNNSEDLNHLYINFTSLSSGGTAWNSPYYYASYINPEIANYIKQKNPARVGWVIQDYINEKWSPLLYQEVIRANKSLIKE
smiles,measurement,value
"N#C[C@@H]1CCCN1C(=O)CNC12CC3CC(CC(O)(C3)C1)C2 [LAF-237, 1-[[(3-hydroxy-1-adamantyl)amino]acetyl]-2-cyano-(S)-pyrrolidine]",IC50,100 µM
